The results in this text go back to patent US9556201B2, “Bicyclic pyridines and analogs as sirtuin modulators” (GLAXOSMITHKLINE LLC, priority 2009, dated 2017).

In the experiment the target is T1, SIRT1 (Homo sapiens, UniProt Q96EB6).
T1 sequence (Q96EB6 1-747): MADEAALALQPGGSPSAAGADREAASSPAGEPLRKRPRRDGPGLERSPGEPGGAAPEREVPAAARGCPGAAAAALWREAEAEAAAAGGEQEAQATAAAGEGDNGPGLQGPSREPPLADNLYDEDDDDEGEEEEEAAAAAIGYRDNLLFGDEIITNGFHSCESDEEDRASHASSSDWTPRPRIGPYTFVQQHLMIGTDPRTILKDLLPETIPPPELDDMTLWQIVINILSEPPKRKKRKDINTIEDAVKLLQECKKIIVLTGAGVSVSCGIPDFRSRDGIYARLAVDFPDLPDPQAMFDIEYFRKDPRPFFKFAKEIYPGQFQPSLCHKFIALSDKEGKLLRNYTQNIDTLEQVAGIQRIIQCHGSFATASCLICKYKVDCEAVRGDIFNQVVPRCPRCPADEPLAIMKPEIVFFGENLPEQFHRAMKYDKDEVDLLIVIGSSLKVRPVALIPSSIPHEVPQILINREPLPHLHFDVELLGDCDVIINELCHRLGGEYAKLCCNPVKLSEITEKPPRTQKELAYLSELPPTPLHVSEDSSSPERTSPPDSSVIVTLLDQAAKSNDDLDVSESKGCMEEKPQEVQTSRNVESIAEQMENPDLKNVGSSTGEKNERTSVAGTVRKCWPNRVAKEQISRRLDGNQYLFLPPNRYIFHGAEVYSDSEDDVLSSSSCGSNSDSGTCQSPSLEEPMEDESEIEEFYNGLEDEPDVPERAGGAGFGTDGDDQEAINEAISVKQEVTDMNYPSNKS
As to the kind of experiment: Mass spectrometry based assay to identify modulators of SIRT1 activity (deacetylation of p53-based acetylated peptide substrate). It is filed as biochemical. The following applies: for Emax: 25 min, SIRT1 activation, read-out: % FOLD ACT. (percent maximum fold activation). The method in brief: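 His-tagged human SIRT1 (10 nM, E. coli) incubated 25 min at 25 °C with […] p53-derived acetylated 5TMR peptide and 120 μM βNAD+ in pH 8 Tris-acetate buffer, then formic acid-stopped. Mass spectrometry quantifies acetylated vs deacetylated peptide; nicotinamide and DMSO controls.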

Take `CC1(C)CCN(C(=O)Nc2ccccn2)c2nc(-c3cccc(Cl)c3)ccc2C1=O` [Compound 783]: the EC1.5 (concentration giving 1.5-fold activation) is > 25 µM and the Emax was ≤ 200%.

For `Cc1cnccc1NC(=O)N1CCC(C)c2ccc(-c3cccc(C(F)(F)F)c3)nc21` (stereo not drawn) [Compound 784], the EC1.5 (concentration giving 1.5-fold activation) lay within 1 to 25 µM and the Emax was > 200%.

In the case of `CC1CCN(C(=O)Nc2ccccn2)c2nc(-c3cccc(C(F)(F)F)c3)ccc21` (stereo not drawn) [Compound 785, 4-methyl-N-(pyridin-2-yl)-7-(3-(trifluoromethyl)phenyl)-3,4-dihydro-1,8-naphthyridine-1(2H)-carboxamide], the EC1.5 (concentration giving 1.5-fold activation) was < 1 µM and the Emax was > 200%.

`CCN1C(=O)CCN(C(=O)Nc2cccc(OC[C@@H](O)CO)n2)c2nc(-c3cccc(Cl)c3)ccc21` [Compound 788]: the EC1.5 (concentration giving 1.5-fold activation) was > 25 µM and the Emax was ≤ 200%.

As for `CCN1CCCN(C(=O)Nc2cccnc2)c2nc(-c3cccc(Cl)c3)ccc21` [Compound 789, 7-(3-chlorophenyl)-1-ethyl-N-(pyridin-3-yl)-3,4-dihydro-1H-pyrido[2,3-b][1,4]diazepine-5(2H)-carboxamide], the EC1.5 (concentration giving 1.5-fold activation) lay within 1 to 25 µM and the Emax is > 200%.

As to `CCN1CCCN(C(=O)Nc2ccccn2)c2nc(-c3cccc(Cl)c3)ccc21` [Compound 790], the EC1.5 (concentration giving 1.5-fold activation) is > 25 µM and the Emax was ≤ 200%.

As to `CCN1C(=O)CCN(C(=O)Nc2ccc(F)cn2)c2nc(-c3cccc(Cl)c3)ccc21` [Compound 791], the EC1.5 (concentration giving 1.5-fold activation) is > 25 µM and the Emax is ≤ 200%.

As to `CCN1C(=O)CCN(C(=O)Nc2ccnc(OC)n2)c2nc(-c3cccc(Cl)c3)ccc21` [Compound 792], the EC1.5 (concentration giving 1.5-fold activation) is > 25 µM and the Emax is ≤ 200%.

Consider `CCN1CCCN(C(=O)Nc2cccc(OC[C@@H](O)CO)n2)c2nc(-c3cccc(Cl)c3)ccc21` [Compound 796], for which the EC1.5 (concentration giving 1.5-fold activation) lay in the range of 1 to 25 µM and the Emax was > 200%.

Regarding `CCN1CCCN(C(=O)Nc2cccc(C)n2)c2nc(-c3cccc(Cl)c3)ccc21` [Compound 797], the EC1.5 (concentration giving 1.5-fold activation) is > 25 µM and the Emax is ≤ 200%.

On to `O=C(Nc1ccc(F)cn1)N1CCCC(F)(F)c2ccc(-c3cccc(Cl)c3)nc21` [Compound 798], for which the EC1.5 (concentration giving 1.5-fold activation) was > 25 µM and the Emax is ≤ 200%.

`O=C(Nc1ccncn1)N1CCCC(F)(F)c2ccc(-c3cccc(Cl)c3)nc21` [Compound 799, 2-(3-chlorophenyl)-5,5-difluoro-N-(pyrimidin-4-yl)-7,8-dihydro-5H-pyrido[2,3-b]azepine-9(6H)-carboxamide]: the EC1.5 (concentration giving 1.5-fold activation) lay within 1 to 25 µM and the Emax was ≤ 200%.

`CC1CCN(C(=O)Nc2cncnc2)c2nc(-c3cccc(C(F)(F)F)c3)ccc21` (stereo not drawn) [Compound 802]: the EC1.5 (concentration giving 1.5-fold activation) is < 1 µM and the Emax is > 200%.

Regarding `CC1CCN(C(=O)Nc2ncccc2F)c2nc(-c3cccc(C(F)(F)F)c3)ccc21` (stereo not drawn) [Compound 803], the EC1.5 (concentration giving 1.5-fold activation) fell in the range of 1 to 25 µM and the Emax was > 200%.

On to `CCN1CCCN(C(=O)Nc2cc(C)cc(C)n2)c2nc(-c3cccc(Cl)c3)ccc21` [Compound 806], for which the EC1.5 (concentration giving 1.5-fold activation) was > 25 µM and the Emax is ≤ 200%.

On to `CCN1CCCN(C(=O)Nc2ccc(F)cn2)c2nc(-c3cccc(Cl)c3)ccc21` [Compound 807], for which the EC1.5 (concentration giving 1.5-fold activation) is > 25 µM and the Emax is ≤ 200%.

On to `CCN1CCCN(C(=O)Nc2ccncc2F)c2nc(-c3cccc(Cl)c3)ccc21` [Compound 808], for which the EC1.5 (concentration giving 1.5-fold activation) lay in the range of 1 to 25 µM and the Emax is > 200%.

Take `CCN1CCCN(C(=O)Nc2ccncn2)c2nc(-c3cccc(Cl)c3)ccc21` [Compound 809]: the EC1.5 (concentration giving 1.5-fold activation) lay within 1 to 25 µM and the Emax was > 200%.

Turning to `O=C(Nc1ccncc1)N1CCCCc2ccc(-c3cccc(C(F)(F)F)c3)nc21` [Compound 810], the EC1.5 (concentration giving 1.5-fold activation) lay in the range of 1 to 25 µM and the Emax was > 200%.

Turning to `COc1nccc(NC(=O)N2CCCCc3ccc(-c4cccc(C(F)(F)F)c4)nc32)n1` [Compound 811], the EC1.5 (concentration giving 1.5-fold activation) lay within 1 to 25 µM and the Emax is ≤ 200%.

In the case of `O=C(Nc1ccccn1)N1CCCCc2ccc(-c3cccc(C(F)(F)F)c3)nc21` [Compound 812], the EC1.5 (concentration giving 1.5-fold activation) was 1 to 25 µM and the Emax was ≤ 200%.

With `O=C(Nc1ccccn1)N1CCC(F)(F)c2ccc(-c3cccc(C(F)(F)F)c3)nc21` [Compound 814, 4,4-difluoro-N-(pyridin-2-yl)-7-(3-(trifluoromethyl)phenyl)-3,4-dihydro-1,8-naphthyridine-1(2H)-carboxamide], the EC1.5 (concentration giving 1.5-fold activation) is > 25 µM and the Emax is ≤ 200%.

On to `O=C(Nc1ccncn1)N1CCCCc2ccc(-c3cccc(C(F)(F)F)c3)nc21` [Compound 815], for which the EC1.5 (concentration giving 1.5-fold activation) lay within 1 to 25 µM and the Emax is > 200%.

As for `O=C(Nc1ccc(F)cn1)N1CCCCc2ccc(-c3cccc(C(F)(F)F)c3)nc21` [Compound 816], the EC1.5 (concentration giving 1.5-fold activation) was > 25 µM and the Emax was ≤ 200%.

For `O=C(Nc1ccncc1F)N1CCCCc2ccc(-c3cccc(C(F)(F)F)c3)nc21` [Compound 817], the EC1.5 (concentration giving 1.5-fold activation) lay in the range of 1 to 25 µM and the Emax was > 200%.

`Cc1cccc(NC(=O)N2CCCCc3ccc(-c4cccc(C(F)(F)F)c4)nc32)n1` [Compound 818]: the EC1.5 (concentration giving 1.5-fold activation) was > 25 µM and the Emax is ≤ 200%.

Regarding `O=C1CCCN(C(=O)Nc2ccccn2)c2nc(-c3cccc(C(F)(F)F)c3)ccc21` [Compound 819], the EC1.5 (concentration giving 1.5-fold activation) is < 1 µM and the Emax is > 200%.

With `Cc1cc(NC(=O)N2CCCC(=O)c3ccc(-c4cccc(C(F)(F)F)c4)nc32)ccn1` [Compound 820], the EC1.5 (concentration giving 1.5-fold activation) was < 1 µM and the Emax is > 200%.

Turning to `O=C1CCCN(C(=O)Nc2ccncc2F)c2nc(-c3cccc(C(F)(F)F)c3)ccc21` [Compound 821], the EC1.5 (concentration giving 1.5-fold activation) lay in the range of 1 to 25 µM and the Emax is > 200%.

As to `O=C(Nc1ncccc1F)N1CCC(F)(F)c2ccc(-c3cccc(C(F)(F)F)c3)nc21` [Compound 822], the EC1.5 (concentration giving 1.5-fold activation) lay within 1 to 25 µM and the Emax is ≤ 200%.

As to `Cc1cc(OCC(O)CO)nc(NC(=O)N2CCC(F)(F)c3ccc(-c4cccc(C(F)(F)F)c4)nc32)n1` (stereo not drawn) [Compound 824], the EC1.5 (concentration giving 1.5-fold activation) is 1 to 25 µM and the Emax was ≤ 200%.

On to `CC1(C)CCN(C(=O)Nc2ccncc2)c2nc(-c3cccc(C(F)(F)F)c3)ccc21` [Compound 826, 4,4-dimethyl-N-(pyridin-4-yl)-7-(3-(trifluoromethyl)phenyl)-3,4-dihydro-1,8-naphthyridine-1(2H)-carboxamide], for which the EC1.5 (concentration giving 1.5-fold activation) was < 1 µM and the Emax is > 200%.

Turning to `CC1(C)CCN(C(=O)Nc2ccccn2)c2nc(-c3cccc(C(F)(F)F)c3)ccc21` [Compound 827], the EC1.5 (concentration giving 1.5-fold activation) is < 1 µM and the Emax was > 200%.

Turning to `O=C1CCCN(C(=O)Nc2ccncc2)c2nc(-c3cccc(C(F)(F)F)c3)ccc21` [Compound 828], the EC1.5 (concentration giving 1.5-fold activation) lay in the range of 1 to 25 µM and the Emax was > 200%.

Take `O=C1CCCN(C(=O)Nc2cccnc2)c2nc(-c3cccc(C(F)(F)F)c3)ccc21` [Compound 829]: the EC1.5 (concentration giving 1.5-fold activation) lay in the range of 1 to 25 µM and the Emax was > 200%.

Consider `CC1(C)CCN(C(=O)Nc2ccncc2)c2nc(-c3cccc(Cl)c3)ccc2C1=O` [Compound 832], for which the EC1.5 (concentration giving 1.5-fold activation) is 1 to 25 µM and the Emax is ≤ 200%.

With `CC1(C)CCN(C(=O)Nc2cccnc2)c2nc(-c3cccc(Cl)c3)ccc2C1=O` [Compound 833], the EC1.5 (concentration giving 1.5-fold activation) is > 25 µM and the Emax was ≤ 200%.

Regarding `Cc1cnccc1NC(=O)N1CCC(C)(C)c2ccc(-c3cccc(C(F)(F)F)c3)nc21` [Compound 834, 4,4-dimethyl-N-(3-methylpyridin-4-yl)-7-(3-(trifluoromethyl)phenyl)-3,4-dihydro-1,8-naphthyridine-1(2H)-carboxamide], the EC1.5 (concentration giving 1.5-fold activation) was in the range of 1 to 25 µM and the Emax is ≤ 200%.

Take `CC1(C)CCN(C(=O)Nc2cncnc2)c2nc(-c3cccc(C(F)(F)F)c3)ccc21` [Compound 835]: the EC1.5 (concentration giving 1.5-fold activation) was 1 to 25 µM and the Emax was > 200%.
